Consider 1 compound from US6267968A, “MDP derivatives and conjugates having haematipoietic function stimulating activity, and compositions containing same” (Vacsyn S.A., priority 1995, dated 2001).

Each structure is given as a SMILES string.

Assay [1] has as its system circulating leukocytes, neutrophils and myelocytes. The assay is described as follows: Oral Muradimetide with nonmyelotoxic or myelotoxic intravenous doses of AZT, cell counts (Example 8). The assay is classed as in vivo, female Swiss mice. Particulars: Muradimetide 25 mg per kg orally 4 hours before AZT i.v. 5 or 40 mg per kg, days 0-3. On the procedure:
In this experiment female Swiss mice were injected intravenously with AZT at a dose of 5 or 40 mg per kg on days 0, 1, 2 and 3. On each of the 4 days, and 4 hours before the administration of AZT, groups of mice consisting of 5 individuals received orally either buffer or Muradimetide at a dose of 25 mg per kg.
Cell counts are done on days 0, 1, 2, 3, 4 and 7.
FIG. 3 represents the same experiment in which the myelocytes are counted.

Assay [2] has the same test system. As to the kind of experiment: Intravenous or oral Muradimetide, cell counts modified by intravenous AZT (Example 2). It is filed as in vivo, male CDI mice. On the procedure: Treatment with AZT alone classically induces a decrease in the number of circulating leukocytes and neutrophils. This decrease is followed by a restoration occurring approximately 4 to 7 days after the beginning of the treatment. When Muradimetide has been administered systemically or orally after a treatment with 40 mg/kg of AZT, there is no fall in the number of cells and, on the contrary, there is a multiplication by at least 1.5 of the number of leukocytes and a tripling of the number of neutrophils, this already occurring after 4 days.
Male CDI mice (5 per group) were injected with AZT at a dose of 40 mg per kg on days 0 to 3. Muradimetide is administered on the same days at a dose of 10 mg per kg intravenously or 50 mg per kg orally. Cell counts are done an day 0 (before the treatment) and on days 3 and 4.

The mark [3] stands for this setting: Muradimetide i.v. 10 mg/kg with AZT i.v. 40 mg/kg, day 0 (before the treatment).
[4] abbreviates: Muradimetide i.v. 10 mg/kg with AZT i.v. 40 mg/kg, day 3.
Where [5] appears, read: Muradimetide i.v. 10 mg/kg with AZT i.v. 40 mg/kg, day 4.
The mark [6] stands for this setting: Muradimetide p.o. 50 mg/Kg with AZT i.v. 40 mg/kg, day 0 (before the treatment).
Where [7] appears, read: Muradimetide p.o. 50 mg/Kg with AZT i.v. 40 mg/kg, day 3.
Where [8] appears, read: Muradimetide p.o. 50 mg/Kg with AZT i.v. 40 mg/kg, day 4.
Setting [9] is: Muradimetide systemically or orally after treatment with 40 mg/kg of AZT, after 4 days.

Take `COC(=O)CC[C@@H](NC(=O)[C@H](C)NC(=O)[C@@H](C)O[C@H]1[C@H](O)[C@@H](CO)OC(O)[C@@H]1NC(C)=O)C(=O)OC` (stereo partly drawn) [Muradimetide, Nac--Mur--L--Ala--D--Glu--[OCH3]--OCH3]: in assay [1], the “time of maximum effect on leukocyte, neutrophil and myelocyte counts (FIGS. 1-3)” value was determined as 4 days. The Leukocytes in assay [2] (Muradimetide i.v. 10 mg/kg days 0-3 with AZT i.v. 40 mg/kg, day 0 (before the treatment)) is 6.0 ± 3.4 × 10^6 /ml; in assay [2] (Muradimetide i.v. 10 mg/kg days 0-3 with AZT i.v. 40 mg/kg, day 3), 5.9 ± 2.9 × 10^6 /ml; in assay [2] (Muradimetide i.v. 10 mg/kg days 0-3 with AZT i.v. 40 mg/kg, day 4), 7.6 ± 1.6 × 10^6 /ml; in assay [2] (Muradimetide p.o. 50 mg/Kg days 0-3 with AZT i.v. 40 mg/kg, day 0 (before the treatment)), 4.8 ± 0.4 × 10^6 /ml; in assay [2] (Muradimetide p.o. 50 mg/Kg days 0-3 with AZT i.v. 40 mg/kg, day 3), 6.1 ± 1.4 × 10^6 /ml; in assay [2] (Muradimetide p.o. 50 mg/Kg days 0-3 with AZT i.v. 40 mg/kg, day 4), 8.1 ± 2.9 × 10^6 /ml. Moreover, the Myelocytes was 5 ± 7 × 10^4 /ml in assay [2] (setting [3]); 145 ± 83 × 10^4 /ml in assay [2] (setting [4]); 117 ± 46 × 10^4 /ml in assay [2] (setting [5]); 14 ± 13 × 10^4 /ml in assay [2] (setting [6]); 123 ± 55 × 10^4 /ml in assay [2] (setting [7]); 138 ± 59 × 10^4 /ml in assay [2] (setting [8]). In addition, the Neutrophils in assay [2] (setting [3]) is recorded as 2.0 ± 1.3 × 10^6 /ml; in assay [2] (setting [4]) it was 1.5 ± 0.8 × 10^6 /ml; in assay [2] (setting [5]), 4.6 ± 1.5 × 10^6 /ml; in assay [2] (setting [6]) it was 1.4 ± 0.5 × 10^6 /ml; in assay [2] (setting [7]) it was 1.6 ± 0.5 × 10^6 /ml; in assay [2] (setting [8]), 4.3 ± 2.47 × 10^6 /ml. The “increase of the number of neutrophils” value in assay [2] (setting [9]) is reported as “tripling”. Moreover, in assay [2] (setting [9]), the “multiplication of the number of leukocytes” value is “at least 1.5”. In addition, the “percentage of myelocytes or of promyelocytes” value in assay [2] (with AZT 40 mg/kg i.v., irrespective of mode of administration of Muradimetide) is recorded as “spectacular increase”.
